Assay results reported in patent US10202360B2 (CELGENE QUANTICEL RESEARCH, INC., priority 2016, dated 2019).

The molecules below were run against CREBBP (Homo sapiens (Human), UniProt Q92793) (assay: In vitro enzyme inhibition assay - CREBBP inhibition (AlphaScreen, biotinylated H4-tetraacetyl peptide)). Settings: Table 28; AlphaScreen, H4-tetraacetyl peptide.
Assay type: binding
How it was run: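 His-tagged CREBBP expressed in E. coli (50 nM final) incubated with biotinylated H4K5/8/12/16(Ac) peptide (20 nM final) in HEPES pH 7.3 buffer, 0.4% DMSO, 20 min at room temperature.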

Chain of CREBBP (Q92793 1081-1197): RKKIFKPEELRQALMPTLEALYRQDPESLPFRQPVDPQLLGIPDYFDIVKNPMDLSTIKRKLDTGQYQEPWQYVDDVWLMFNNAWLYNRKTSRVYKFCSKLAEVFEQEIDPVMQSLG

| IC50 | SMILES |
| --- | --- |
| < 500 nM | CCC(CC)S(=O)(=O)Nc1cc(-c2ccc(=O)n(C)c2)nc(Oc2c(C)cccc2F)n1 [Example 253, Pentane-3-sulfonic acid [2-(2-fluoro-6-methyl-pphenoxy)-6-(1-methyl-6-oxo-1,6-dihydro-pyridin-3-yl)-pyrimidin-4-yl]-amide] |
| < 500 nM | CCC(CC)S(=O)(=O)Nc1cc(-c2ccc(=O)n(C)c2)nc(Oc2c(F)cccc2Cl)n1 [Example 254, Pentane-3-sulfonic acid [2-(2-chloro-6-fluoro-phenoxy)-6-(1-methyl-6-oxo-1,6-dihydro-pyridin-3-yl)-pyrimidin-4-yl]-amide] |
| < 500 nM | CCCCS(=O)(=O)Nc1cc(-c2ccc(=O)n(C)c2)nc(Oc2c(F)ccc(C)c2Cl)n1 [Example 255, Butane-1-sulfonic acid [2-(2-chloro-6-fluoro-3-methyl-phenoxy)-6-(1-methyl-6-oxo-1,6-dihydro-pyridin-3-yl)-pyrimidin-4-yl]-amide] |
| < 500 nM | Cc1ccc(F)c(Oc2nc(NS(=O)(=O)C(C)C)cc(-c3ccc(=O)n(C)c3)n2)c1Cl [Example 256, Propane-2-sulfonic acid [2-(2-chloro-6-fluoro-3-methyl-phenoxy)-6-(1-methyl-6-oxo-1,6-dihydro-pyridin-3-yl)-pyrimidin-4-yl]-amide] |
| < 500 nM | CCCCS(=O)(=O)Nc1cc(-c2ccc(=O)n(C)c2)nc(Oc2c(F)ccc(C)c2F)n1 [Example 257, Butane-1-sulfonic acid [2-(2,6-difluoro-3-methyl-phenoxy)-6-(1-methyl-6-oxo-1,6-dihydro-pyridin-3-yl)-pyrimidin-4-yl]-amide] |
| < 500 nM | CCCCS(=O)(=O)Nc1cc(-c2ccc(=O)n(C)c2)nc(Oc2c(Cl)ccc(C)c2F)n1 [Example 258, Butane-1-sulfonic acid [2-(6-chloro-2-fluoro-3-methyl-phenoxy)-6-(1-methyl-6-oxo-1,6-dihydro-pyridin-3-yl)-pyrimidin-4-yl]-amide] |
| < 500 nM | CCC(CC)S(=O)(=O)Nc1cc(-c2ccc(=O)n(C)c2)nc(Oc2c(C)cccc2Cl)n1 [Example 259, Pentane-3-sulfonic acid [2-(2-chloro-6-methyl-phenoxy)-6-(1-methyl-6-oxo-1,6-dihydro-pyridin-3-yl)-pyrimidin-4-yl]-amide] |
| < 500 nM | Cc1ccc(F)c(Oc2nc(NS(=O)(=O)C(C)C)cc(-c3ccc(=O)n(C)c3)n2)c1F [Example 260, Propane-2-sulfonic acid [2-(2,6-difluoro-3-methyl-phenoxy)-6-(1-methyl-6-oxo-1,6-dihydro-pyridin-3-yl)-pyrimidin-4-yl]-amide] |
| < 500 nM | Cc1ccc(Cl)c(Oc2nc(NS(=O)(=O)C(C)C)cc(-c3ccc(=O)n(C)c3)n2)c1F [Example 261, Propane-2-sulfonic acid [2-(6-chloro-2-fluoro-3-methyl-phenoxy)-6-(1-methyl-6-oxo-1,6-dihydro-pyridin-3-yl)-pyrimidin-4-yl]-amide] |
| < 500 nM | Cc1ccc(Cl)c(Oc2nc(NS(=O)(=O)CCC(C)C)cc(-c3ccc(=O)n(C)c3)n2)c1F [Example 262, 3-Methyl-butane-1-sulfonic acid [2-(6-chloro-2-fluoro-3-methyl-phenoxy)-6-(1-methyl-6-oxo-1,6-dihydro-pyridin-3-yl)-pyrimidin-4-yl]-amide] |
| < 500 nM | Cn1cc(-c2cc(NS(=O)(=O)CC3CC3)nc(Oc3c(F)cccc3Cl)n2)ccc1=O [Example 263, N-[2-(2-Chloro-6-fluoro-phenoxy)-6-(1-methyl-6-oxo-1,6-dihydro-pyridin-3-yl)-pyrimidin-4-yl]-C-cyclopropyl-methanesulfonamide] |
| < 500 nM | Cc1cccc(Cl)c1Oc1nc(NS(=O)(=O)CC2CC2)cc(-c2ccc(=O)n(C)c2)n1 [Example 264, N-[2-(2-Chloro-6-methyl-phenoxy)-6-(1-methyl-6-moxo-1,6-dihydro-pyridin-3-yl)-pyrimidin-4-yl]-C-cyclopropyl-methanesulfonamide] |
